This is an account of results in ChEMBL document CHEMBL1147613, “A series of spirocyclic analogues as potent inhibitors of bacterial phenylalanyl-tRNA synthetases” (Bioorg Med Chem Lett, 2004).

The target in this experiment is T1, Phenylalanine--tRNA ligase, mitochondrial (Homo sapiens, UniProt O95363).
T1 sequence (O95363 whole entry): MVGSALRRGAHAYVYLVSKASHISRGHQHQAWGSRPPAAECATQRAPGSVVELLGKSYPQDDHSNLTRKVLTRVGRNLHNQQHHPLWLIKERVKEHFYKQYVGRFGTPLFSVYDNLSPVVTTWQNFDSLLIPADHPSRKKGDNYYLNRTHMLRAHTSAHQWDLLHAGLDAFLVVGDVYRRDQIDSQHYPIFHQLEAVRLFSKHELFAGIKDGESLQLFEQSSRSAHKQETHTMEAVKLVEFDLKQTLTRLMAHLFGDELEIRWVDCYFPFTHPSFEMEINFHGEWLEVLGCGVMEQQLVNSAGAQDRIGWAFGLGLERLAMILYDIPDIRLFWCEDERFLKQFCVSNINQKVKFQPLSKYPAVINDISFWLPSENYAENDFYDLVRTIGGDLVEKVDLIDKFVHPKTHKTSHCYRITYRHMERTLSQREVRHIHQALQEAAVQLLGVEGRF
Description: Inhibitory activity against human phenylalanyl-tRNA synthetase was determined.

Broadly, the IC50 is the midpoint of a concentration-inhibition curve. A low value points to greater potency. In the case of `O=C1[C@H]2[C@@H](C(=O)N1c1ccc(Cl)c(Cl)c1)C1(N[C@H]2c2ccccc2)C(=O)c2ccccc2C1=O`, the IC50 is greater than 100 µM.

Compound `Cc1ccc(N2C(=O)[C@H]3[C@H](c4ccccc4)NC4(C(=O)c5ccccc5C4=O)[C@H]3C2=O)cc1Cl` yielded an IC50 greater than 100 µM.

`Cc1ccc(N2C(=O)[C@H]3[C@@H](C2=O)C2(N[C@H]3c3ccccc3)C(=O)c3ccccc3C2=O)cc1Cl` returned an IC50 greater than 100 µM.

Compound `COc1ccccc1N1C(=O)[C@@H]2C(c3ccccc3C)OC3(C(=O)c4ccccc4C3=O)[C@@H]2C1=O` (some centres undefined) had an IC50 greater than 100 µM.

Consider `Cc1ccc(N2C(=O)[C@H]3C(c4ccccc4)OC4(C(=O)c5ccccc5C4=O)[C@H]3C2=O)cc1Cl` (some centres undefined), for which the IC50 was greater than 100 µM.

Turning to `COC(=O)C1N[C@@H](c2ccccc2)[C@H]2C(=O)N(c3ccc(Cl)c(Cl)c3)C(=O)[C@@H]12` (some centres undefined), the IC50 was greater than 100 µM.

In turn, `O=C1C2C(c3ccccc3)OC3(C(=O)c4ccccc4C3=O)C2C(=O)N1c1ccc2c(c1)OCO2` (centres undefined) yielded an IC50 greater than 100 µM.

`O=C1[C@H]2[C@H](c3ccccc3)NC3(Cc4ccccc4C3)[C@H]2C(=O)N1c1ccc(Cl)c(Cl)c1` gave an IC50 greater than 100 µM.

As to `O=C1[C@@H]2C(c3ccccc3)OC3(C(=O)c4ccccc4C3=O)[C@@H]2C(=O)N1c1ccc([N+](=O)[O-])cc1` (some centres undefined), the IC50 is greater than 100 µM.

In the case of `Cc1ccc(N2C(=O)[C@@H]3C(c4ccccc4)OC4(C(=O)c5ccccc5C4=O)[C@@H]3C2=O)cc1Cl` (some centres undefined), the IC50 is greater than 100 µM.

Compound `O=C1[C@H]2[C@H](c3ccccc3)NC3(C(=O)c4ccccc4C3=O)[C@H]2C(=O)N1c1ccc(Cl)c(Cl)c1` had an IC50 greater than 100 µM.

For `O=C1[C@@H]2C(c3ccc(Cl)cc3)OC3(C(=O)c4ccccc4C3=O)[C@@H]2C(=O)N1c1ccc(Cl)c(C(F)(F)F)c1` (some centres undefined), the IC50 is greater than 100 µM.

As for `O=C(c1ccccc1)C1N[C@@H](c2ccccc2)[C@H]2C(=O)N(c3ccc(Cl)c(Cl)c3)C(=O)[C@@H]12` (some centres undefined), the IC50 is greater than 100 µM.

Consider `COc1ccc(N2C(=O)[C@@H]3C(c4ccccc4)OC4(C(=O)c5ccccc5C4=O)[C@@H]3C2=O)cc1` (some centres undefined), for which the half-maximal inhibitory concentration (IC50) is greater than 100 µM.

Take `O=C1[C@@H]2C(c3ccccc3)OC3(C(=O)c4ccccc4C3=O)[C@@H]2C(=O)N1c1ccc(Cl)c(C(F)(F)F)c1` (some centres undefined): the IC50 was greater than 100 µM.

Consider `Cc1ccc(C2OC3(C(=O)c4ccccc4C3=O)[C@@H]3C(=O)N(c4ccc5c(c4)OCO5)C(=O)[C@H]23)cc1` (some centres undefined), for which the IC50 is greater than 100 µM.

As for `COc1ccccc1N1C(=O)C2C(c3ccccc3)OC3(C(=O)c4ccccc4C3=O)C2C1=O` (centres undefined), the IC50 was greater than 100 µM.

As for `O=C1[C@H]2[C@@H](C(=O)N1c1ccc(Cl)c(Cl)c1)C1(Cc3ccccc3C1)N[C@H]2c1ccccc1`, the IC50 was greater than 100 µM.

`O=C(c1ccccc1)C1N[C@@H](c2ccccc2)[C@@H]2C(=O)N(c3ccc(Cl)c(Cl)c3)C(=O)[C@H]12` (some centres undefined) had an IC50 greater than 100 µM.
